Reference: patent US20230075765A1, “PYRROLO[2,3-D]PYRIMIDINE DERIVATIVE TARGETING EGFR MUTATION, AS WELL AS THE PREPARATIVE METHOD AND THE USE THEREOF” (WEST CHINA HOSPITAL, SICHUAN UNIVERSITY, priority 2020, published 2023)
Read-outs that look alike come from different tables or passages of the source.

How the values were obtained:
[1] = test system: HCC827 cells; assay: Inhibition of cell proliferation, CCK8 method; type: cell-based, human; details: for IC50: HCC827 EGFR mutant cells, 48 h, CCK8, read-out: Inhibitory activity (IC50) against HCC827; for selectivity for HCC827 cells (in words): EGFR mutant HCC827 cells versus other cell lines
Description: The stock solution was diluted with the corresponding culture medium to the required concentration just before the experiment.
(§1) HBE cells and BEAS-2B cells are normal lung bronchial epithelial cell lines, and both cells were cultured in DMEM high glucose medium (supplemented with 10% fetal bovine serum and 1% double antibody) to the logarithmic growth phase; H460 cells, A549 cells, H1975 cells and HCC827 cells are lung cancer cell lines, and all of them were cultured in RPMI1640 medium (supplemented with 10% fetal bovine serum and 1% double antibody) to the logarithmic growth phase. Among them, H1975 cells and HCC827 cells are EGFR mutant cells.
(§2) The cells were counted, and then seeded in a 96-well plate at a density of 5000 cells/well, 100 μl for each well. The culture plate was moved into a CO2 incubator and incubated for 24 h at 37° C. and 5% CO2. Compounds at different concentrations were added to each well, 5 replicate wells for each concentration, and the cells were treated with the compounds for 48 hours. CCK8 detection reagent was added to each well according to the operation manual, and then the plate was further incubated for 1 h before terminating the culture. 450 nm wavelength was chosen, and the absorbance value of each well was adjusted on the microplate ELISA analyzer. The result was recorded. […] was taken as the horizontal axis, and absorbance as the vertical axis to plot a curve. The half inhibitory concentration (IC50) was calculated by Bliss method. Each experiment was repeated at least 3 times.
Normal lung cell lines and different lung cancer cell lines were selected for experiments.

[2] = test system: normal cells and different lung cancer cell lines; assay: Inhibition of cell proliferation, CCK8 method, comparison in words over the whole cell panel; type: cell-based, human; details: BEAS-2B, HBE, H460, A549, H1975, HCC827; CCK8, 48 h
Description: Compounds 1-9 of the present invention were respectively weighed and dissolved in 1 ml of dimethyl sulfoxide (DMSO), to prepare a 10 mM drug solution, which was stored in a refrigerator at −20° C. in the dark after packaging. The stock solution was diluted with the corresponding culture medium to the required concentration just before the experiment.
as §1
as §2, with “When the cells were cultured to 90% of the growth density, the cells were digested with 0.25% trypsin to prepare a single cell suspension. The cells” for “The cells”
Normal lung cell lines and different lung cancer cell lines were selected for experiments. Amongst, the compound with high anti-cancer activity was screened, whose anti-tumor activity was further studied.

[3] = biological target: T1, EGFR (T790M, C797S, L858R) (Homo sapiens, UniProt P00533, C797S/L858R/T790M); assay: Kinase inhibition, Lantha Screen assay; type: biochemical; details: for Single-concentration inhibitory activity against EGFR (T790M, C7975, L858R), Mean (100% inhibition): compound concentration 2 nM; for IC50: read-out: Inhibitory activity (IC50) on EGFR (T790M, C797S, L858R)
T1 construct: purchased BPS 40351
Description: According to relevant literature, the inhibitory activity of five kinases (EGFR, EGFR-LT, EGFR-LTC, BTK, JAK3) were tested. Note: EGFR, EGFR-LT, EGFR-LTC: wild-type EGFR, L858R/T790M (EGFR-LT), or L858R/T790M/C797S (EGFR-LTC) mutant protein. […]
1) The initial detection concentration of the compound is 10 μM, and the compound was prepared into a 100-fold concentration, namely 1000 μM. 95 μl of 100% DMSO was added to the first well of a 96-well plate, and then 10 μl of 10 mM compound solution was added to prepare a 1000 μM compound solution. 50 μl of […] compound solution prepared above was transferred to a 384-well Echo plate;
2) 50 μl of 100% DMSO was transferred to two empty wells as a control without compound and enzyme;
3) Echo 550 was used to transfer 100 nl of compound solution to a 384-well test plate. 2.3 Kinase reaction and termination
1) EGFR (T790M, C797S, L858R) was added to 1× kinase buffer to form 2× kinase solution;
2) 5 μl of the above 2× kinase solution was transferred to a 384-well reaction plate, and 1× kinase buffer was added to the negative control well, then incubated for 10 min at room temperature;
3) Fluorescein-PolyGT and ATP were added to 1× kinase buffer to form a 2× substrate solution;
4) 5 μl of the above 2× substrate solution was transferred to a 384-well reaction plate;
5) The 384-well reaction plate was incubated at room temperature for 30 min;
6) 2× mixed solution of antibody and EDTA was prepared, of which […] was added to the 384-well reaction plate to stop the reaction;
7) The plate was left at room temperature for 60 min.
Percent inhibition=(max−Lantha signal)/(max−min)*100
“min” is the reading of the control well without enzyme; “max” is the reading of DMSO control well. 3) The data were imported into MS Excel, and IC50 results were subjected to curve fitting by using XLFit excel add-in version 5.4.0.8:
Fitting formula: Y=Bottom+(Top−Bottom)/(1+(IC50/X)^HillSlope)

T1 sequence (P00533 25-1210 T790M/C797S/L858R): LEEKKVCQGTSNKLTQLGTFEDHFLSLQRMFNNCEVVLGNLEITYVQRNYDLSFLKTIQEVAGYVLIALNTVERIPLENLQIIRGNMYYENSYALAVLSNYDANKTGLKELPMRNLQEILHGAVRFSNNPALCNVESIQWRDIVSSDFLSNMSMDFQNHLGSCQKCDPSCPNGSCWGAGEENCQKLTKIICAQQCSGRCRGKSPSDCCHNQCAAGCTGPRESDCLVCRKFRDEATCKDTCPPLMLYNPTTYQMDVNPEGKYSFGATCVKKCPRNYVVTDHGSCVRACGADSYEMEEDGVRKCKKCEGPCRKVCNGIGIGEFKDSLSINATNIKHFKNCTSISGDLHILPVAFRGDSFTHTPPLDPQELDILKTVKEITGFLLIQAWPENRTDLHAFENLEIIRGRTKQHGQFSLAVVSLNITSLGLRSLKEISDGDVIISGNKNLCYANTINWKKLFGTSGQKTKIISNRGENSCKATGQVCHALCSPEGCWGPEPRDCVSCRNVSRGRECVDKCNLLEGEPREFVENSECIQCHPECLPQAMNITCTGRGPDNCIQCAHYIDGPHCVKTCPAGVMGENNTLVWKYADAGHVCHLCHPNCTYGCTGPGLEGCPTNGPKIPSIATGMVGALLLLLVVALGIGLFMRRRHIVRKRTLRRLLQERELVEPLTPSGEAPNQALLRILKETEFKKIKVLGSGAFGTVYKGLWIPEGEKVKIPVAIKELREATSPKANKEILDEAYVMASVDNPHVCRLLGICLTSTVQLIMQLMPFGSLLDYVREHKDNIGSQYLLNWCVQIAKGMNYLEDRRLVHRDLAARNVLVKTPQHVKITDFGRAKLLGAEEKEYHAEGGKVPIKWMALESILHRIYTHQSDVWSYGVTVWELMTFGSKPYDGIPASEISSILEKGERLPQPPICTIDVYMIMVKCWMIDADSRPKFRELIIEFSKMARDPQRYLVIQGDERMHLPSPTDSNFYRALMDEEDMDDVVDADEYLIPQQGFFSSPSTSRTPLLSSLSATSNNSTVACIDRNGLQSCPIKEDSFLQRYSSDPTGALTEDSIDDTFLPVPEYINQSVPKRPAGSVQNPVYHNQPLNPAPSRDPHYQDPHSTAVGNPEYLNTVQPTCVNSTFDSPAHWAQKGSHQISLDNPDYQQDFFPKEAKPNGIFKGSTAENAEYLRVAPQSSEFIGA

| Structure (SMILES) | IC50 [1] | inhibitory effect on different cell lines (in words) [2] | Single-concentration inhibitory activity against EGFR (T790M, C7975, L858R), Mean (100% inhibition) [3] | selectivity for HCC827 cells (in words) [1] | IC50 ([1]; Homo sapiens) | IC50 [3] | selectivity coefficient ([1]; IC50 values against HBE cells compared with HCC827 cells) | inhibitory activity on HCC827 cells (in words) ([1]; CCK8, 48 h) |
| --- | --- | --- | --- | --- | --- | --- | --- | --- |
| C=CC(=O)Nc1cccc(Oc2nc(Nc3ccc(N4CCN(C)CC4)c(Cl)c3)nc3[nH]ccc23)c1 [Compound 2] | 120 nM | basically the same as that of the positive control | 9.2 % inhibition |  |  |  |  |  |
| C=CC(=O)Nc1cccc(Oc2nc(Nc3ccc(N4CCN(C)CC4)c(OC)c3)nc3[nH]ccc23)c1 [Compound 4] |  |  | 7.8 % inhibition | high targeting selectivity | 260 nM | 1410 nM |  |  |
| C=CC(=O)Nc1cccc(Oc2nc(Nc3ccc(N4CCN(C)CC4)c([N+](=O)[O-])c3)nc3[nH]ccc23)c1 [Compound 5] |  |  | 5.8 % inhibition |  | 100 nM | 2220 nM |  |  |
| C=CC(=O)Nc1cccc(Oc2nc(Nc3ccc(N4CCN(C)CC4)c(N)c3)nc3[nH]ccc23)c1 [Compound 6] |  |  | 8.0 % inhibition | high targeting selectivity | 46 nM | 464 nM | exceeds 490 times |  |
| C=CC(=O)Nc1cccc(Oc2nc(Nc3ccc(N4CCN(C)CC4)c([N+](=O)[O-])c3)nc3c2ccn3COC(=O)C(C)(C)C)c1 [Compound 7] |  |  | 8.4 % inhibition |  | 440 nM |  |  |  |
| C=CC(=O)Nc1cccc(Oc2nc(Nc3ccc(N4CCN(C)CC4)c(N)c3)nc3c2ccn3COC(=O)C(C)(C)C)c1 [Compound 8] |  | relatively poor inhibitory effects on other cell lines | 3.6 % inhibition |  | 330 nM |  |  | certain inhibitory effect |
| C=CC(=O)Nc1cccc(Oc2nc(Nc3ccc(N4CCN(C)CC4)c(I)c3)nc3c2ccn3COC(=O)C(C)(C)C)c1 [Compound 9] |  | poorer than that of other compounds | 2.1 % inhibition |  | 51700 nM |  |  |  |
